Measurements reported in US20100196355A1, “Immunophilin Ligands and Methods for Modulating Immunophilin and Calcium Channel Activity” (Wyeth, priority 2007, published 2010).

Experiments:
[1] = tested on: rat cortical neuron cultures; experiment: Transcriptional profiling of cortical neuron cultures; format: cell-based; settings: 10 μM
Procedure: Cortical neuron cultures were prepared from E16 rat embryos. After plating for 24 hrs, cultures were treated with 10 μM immunophilin ligands and the corresponding vehicle. After treatment for 4 hrs, 12 hrs, 24 hrs and 48 hrs, cells were lysed. Total RNA from each sample was extracted with the RNEASY® Mini Kit (QIAGEN®). Double stranded cDNA was synthesized from 2 μg of each RNA sample using the […]® System (INVITROGEN®), purified, transcribed in vitro to prepare biotinylated cRNA using T7 RNA polymerase in the presence of biotin labeled UTP and CTP. The fragmented cRNAs were hybridized to a Rat Genome 230 2.0 […]® (AFFYMETRIX®, Santa Clara, Calif.) as recommended by the manufacturer. Hybridized arrays were stained according to manufacture protocols on a Fluidics Station 450 and subsequently scanned on an AFFYMETRIX® scanner 3000. The raw data was generated using AFFYMETRIX® MAS 5.0 Software. Transcriptional profiling data were analyzed in Ingenuity.

His6-tagged FKBP52 = target: T1, His6-tagged FKBP52 (Homo sapiens, UniProt Q02790); experiment: [3H]-FK506 binding on Ni-chelated FLASH plate
T1 construct: made in house
T1 sequence (Q02790 1-459): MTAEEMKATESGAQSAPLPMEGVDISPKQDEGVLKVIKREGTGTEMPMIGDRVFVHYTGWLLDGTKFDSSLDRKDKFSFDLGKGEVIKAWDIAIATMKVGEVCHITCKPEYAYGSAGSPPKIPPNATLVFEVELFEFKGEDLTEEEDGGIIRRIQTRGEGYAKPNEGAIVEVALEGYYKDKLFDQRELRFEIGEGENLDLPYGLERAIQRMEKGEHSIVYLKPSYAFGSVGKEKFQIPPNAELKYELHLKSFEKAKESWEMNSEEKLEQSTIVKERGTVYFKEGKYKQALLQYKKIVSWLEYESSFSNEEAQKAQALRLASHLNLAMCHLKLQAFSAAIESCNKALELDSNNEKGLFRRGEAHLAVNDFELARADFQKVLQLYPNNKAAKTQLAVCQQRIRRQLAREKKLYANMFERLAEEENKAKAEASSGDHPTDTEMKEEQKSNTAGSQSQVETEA
Procedure: Reactions were carried out in triplicate at 25° C. for 30 min. Kd were calculated using methods described by Carreras (Anal. Biochem. 298, 57-61 (2001)).

CO[C@H]1C[C@@H]2CC[C@@H](C)[C@@](O)(O2)C(=O)C(=O)N2CCCCC2C(=O)O[C@H]([C@H](C)C[C@@H]2CC[C@@H](O)[C@H](OC)C2)CC(=O)[C@H](C)/C=C(\C)[C@@H](O)[C@@H](OC)C(=O)[C@H](C)C[C@H](C)C2C=C[C@H](/C=C/1C)ON2c1ccccc1 (stereo partly drawn) [Rapamycin analogue I, 9,27-dihydroxy-3-{2-[4-hydroxy-3-methoxycyclohexyl]-1-methylethyl}-10,21-dimethoxy-6,8,12,14,20,26-hexamethyl-37-phenyl-4,9,10,12,13,14,15,18,21,22,23,24,25,26,27,32,33,34,34a-nonadecahydro-3H-23,27-epoxy-18,15-(epoxyimino)pyrido[2,1-c][1,4]oxazacyclohentriacontine-1,5,11,28,29(6H, 31H)-pentone]
fold change vs DMSO, ACTA1 ([1]; ACTA1): −1.53 fold | fold change vs DMSO, ACTA2 ([1]; ACTA2): 1.41 fold | fold change vs DMSO, AKAP5 ([1]; AKAP5): −2.56 fold | fold change vs DMSO, ASPH ([1]; ASPH): −3.19 fold | fold change vs DMSO, ATP2A2 ([1]; ATP2A2): 1.85 fold | fold change vs DMSO, ATP2B1 ([1]; ATP2B1): 1.53 fold | fold change vs DMSO, ATP2B3 ([1]; ATP2B3): −1.54 fold | fold change vs DMSO, ATP2C1 ([1]; ATP2C1): −1.38 fold | fold change vs DMSO, CABIN1 ([1]; CABIN1): 1.33 fold | fold change vs DMSO, CACNA1B ([1]; CACNA1B): −1.77 fold | fold change vs DMSO, CACNA1C ([1]; CACNA1C): 1.48 fold | fold change vs DMSO, CACNA1D ([1]; CACNA1D): −1.72 fold | fold change vs DMSO, CACNA2D1 ([1]; CACNA2D1): 3.47 fold | fold change vs DMSO, CACNB1 ([1]; CACNB1): −1.32 fold | fold change vs DMSO, CACNG2 ([1]; CACNG2): −1.8 fold | fold change vs DMSO, CACNG3 ([1]; CACNG3): −3.73 fold | fold change vs DMSO, CALM1 ([1]; CALM1): −1.74 fold | fold change vs DMSO, CALM2 ([1]; CALM2): −1.22 fold | fold change vs DMSO, CALM3 ([1]; CALM3): −1.34 fold | fold change vs DMSO, CALR ([1]; CALR): 1.18 fold | fold change vs DMSO, CAMK1 ([1]; CAMK1): −1.6 fold | fold change vs DMSO, CAMK1G ([1]; CAMK1G): −2.47 fold | fold change vs DMSO, CAMK2A ([1]; CAMK2A): −2.03 fold | fold change vs DMSO, CAMK2B ([1]; CAMK2B): −1.82 fold | fold change vs DMSO, CAMK2D ([1]; CAMK2D): −1.45 fold | fold change vs DMSO, CAMK4 ([1]; CAMK4): −1.42 fold | fold change vs DMSO, CHP ([1]; CHP): 1.65 fold | fold change vs DMSO, CREBBP ([1]; CREBBP): 4.14 fold | fold change vs DMSO, CYP27B1 ([1]; CYP27B1): −1.27 fold | fold change vs DMSO, DHCR7 ([1]; DHCR7): 1.84 fold | fold change vs DMSO, DSCR1 ([1]; DSCR1): −1.93 fold | fold change vs DMSO, DSCR1L1 ([1]; DSCR1L1): −4.44 fold | fold change vs DMSO, EBP ([1]; EBP): 1.45 fold | fold change vs DMSO, FDFT1 ([1]; FDFT1): 1.94 fold | fold change vs DMSO, FDPS ([1]; FDPS): 2.34 fold | fold change vs DMSO, GRIA1 ([1]; GRIA1): −2.78 fold | fold change vs DMSO, GRIA2 ([1]; GRIA2): 2.74 fold | fold change vs DMSO, GRIN1 ([1]; GRIN1): −2.41 fold | fold change vs DMSO, GRIN2B ([1]; GRIN2B): −1.94 fold | fold change vs DMSO, GRIN3A ([1]; GRIN3A): −1.84 fold | fold change vs DMSO, GRINA ([1]; GRINA): −1.21 fold | fold change vs DMSO, HDAC5 ([1]; HDAC5): 1.78 fold | fold change vs DMSO, HDAC6 ([1]; HDAC6): −1.18 fold | fold change vs DMSO, HDAC7A ([1]; HDAC7A): 1.24 fold | fold change vs DMSO, HMGCR ([1]; HMGCR): 2.24 fold | fold change vs DMSO, HTR3A ([1]; HTR3A): −1.57 fold | fold change vs DMSO, IDI1 ([1]; IDI1): 3.24 fold | fold change vs DMSO, ITPR3 ([1]; ITPR3): −1.85 fold | fold change vs DMSO, LSS ([1]; LSS): 13.3 fold | fold change vs DMSO, MAPK1 ([1]; MAPK1): 1.29 fold | fold change vs DMSO, MAPK3 ([1]; MAPK3): −1.31 fold | fold change vs DMSO, MVD ([1]; MVD): 1.94 fold | fold change vs DMSO, MVK ([1]; MVK): 1.6 fold | fold change vs DMSO, MYH1 ([1]; MYH1): −2.18 fold | fold change vs DMSO, MYH6 ([1]; MYH6): −7.18 fold | fold change vs DMSO, MYH7 ([1]; MYH7): −6.11 fold | fold change vs DMSO, MYL6B ([1]; MYL6B): −1.69 fold | fold change vs DMSO, NQO1 ([1]; NQO1): 1.8 fold | fold change vs DMSO, PMVK ([1]; PMVK): 1.33 fold | fold change vs DMSO, PPP3CB ([1]; PPP3CB): −1.3 fold | fold change vs DMSO, PPP3CC ([1]; PPP3CC): −1.18 fold | fold change vs DMSO, PPP3R1 ([1]; PPP3R1): −1.49 fold | fold change vs DMSO, PRKAG1 ([1]; PRKAG1): −1.21 fold | fold change vs DMSO, PRKAR1A ([1]; PRKAR1A): 1.08 fold | fold change vs DMSO, PRKAR1B ([1]; PRKAR1B): −3.36 fold | fold change vs DMSO, PRKAR2A ([1]; PRKAR2A): −1.56 fold | fold change vs DMSO, PRKAR2B ([1]; PRKAR2B): −1.56 fold | fold change vs DMSO, RAP1B ([1]; RAP1B): −1.29 fold | fold change vs DMSO, SC5DL ([1]; SC5DL): 2.01 fold | fold change vs DMSO, SQLE ([1]; SQLE): 1.92 fold | fold change vs DMSO, TPM1 ([1]; TPM1): −2.55 fold | fold change vs DMSO, TPM3 ([1]; TPM3): −2.04 fold | fold change vs DMSO, TRPC1 ([1]; TRPC1): −1.21 fold | fold change vs DMSO, TRPC3 ([1]; TRPC3): −2.4 fold | fold change vs DMSO, TRPC4 ([1]; TRPC4): −4.56 fold | fold change vs DMSO, TRPV6 ([1]; TRPV6): 1.65 fold | fold change, PLAU ([1]; plasminogen activator (PLAU)): −40 fold | Kd (His6-tagged FKBP52): 0.55 ± 0.05 nM
